Results on four compounds are retold here after ChEMBL document CHEMBL5120889, “Dolabrane-Type Diterpenoids with Immunosuppressive Activity from Koilodepas hainanense” (J Nat Prod, 2022).

Structures are written as SMILES.

The test system of one data set is B-cell line. As to the kind of experiment: Immunosuppressive activity in BALB/c mouse splenocytes assessed as reduction in LPS-induced mouse B-lymphocytes proliferation incubated for 8 hrs by beta scintillation counting based [3H]thymidine incorporation assay. The format is functional. For orientation: Dividing cells build labelled thymidine or BrdU into new DNA.

The nature of data set [1]: Selectivity index, ratio of CC50 for cytotoxicity in BALB/c mouse splenocytes to IC50 for immunosuppressive activity in BALB/c mouse splenocytes assessed as reduction in ConA-induced mouse T-lymphocytes proliferation. The conditions noted are these: read-out: Ratio CC50/IC50. The format is toxicity, cell-based.
The nature of data set [2]: Selectivity index, ratio of CC50 for cytotoxicity in BALB/c mouse splenocytes to IC50 for immunosuppressive activity in BALB/c mouse splenocytes assessed as reduction in LPS-induced mouse B-lymphocytes proliferation. The format is toxicity, cell-based. The settings on record: read-out: Ratio CC50/IC50.
Data set [3] is described as follows: Immunosuppressive activity in BALB/c mouse splenocytes assessed as reduction in ConA-induced mouse T-lymphocytes proliferation incubated for 8 hrs by beta scintillation counting based [3H]thymidine incorporation assay. The format is functional. The settings on record: T-cell.
A short description of data set [4]: Cytotoxicity in BALB/c mouse Splenocyte assessed as reduction in cell viability incubated for 48 hrs by MTT assay. The data set is classed as toxicity, cell-based. The settings on record: splenocytes.

As to `CC1=C(O)C(=O)C[C@@H]2[C@@]3(C)CC[C@](C)(C(=O)O)C[C@@H]3CC[C@]12C`, the results for the IC50 (in the data set with B-cell line (read-out: IC50); in data set [3]) were 3.05 µM and 3.41 µM, respectively. Moreover, the selectivity ratio in data set [1] amounted to 1.9; in data set [2], 2.1. For the same compound, the CC50 at 48 h in data set [4] came to 6.46 µM.

Turning to `C[C@@H]1C(=O)CC[C@@H]2[C@@]3(C)CC[C@](C)([C@@H](O)CO)C[C@@H]3CC[C@]21C`, the IC50 in the data set on B-cell line (read-out: IC50) was 10.2 µM; in data set [3], 23.9 µM. The selectivity ratio worked out at 1 in data set [1] and 2.4 in data set [2]. Besides, the CC50 at 48 h in data set [4] stood at 24.2 µM.

Consider `CC1=CC(=O)C[C@@H]2[C@@]3(C)CC[C@](C)(O)C[C@@H]3CC[C@@]12C`, for which the IC50 in the data set with B-cell line (read-out: IC50) was 2.24 µM; in data set [3], 3.11 µM. The selectivity ratio in data set [1] amounted to 4.2; in data set [2] it was 5.9. Further, the CC50 at 48 h in data set [4] is 13.2 µM.

On to `C/C=C/C[C@@H](C)[C@@H](O)[C@H]1C(=O)N[C@@H](CC)C(=O)N(C)CC(=O)N(C)[C@@H](CC(C)C)C(=O)N[C@@H](C(C)C)C(=O)N(C)[C@@H](CC(C)C)C(=O)N[C@@H](C)C(=O)N[C@H](C)C(=O)N(C)[C@@H](CC(C)C)C(=O)N(C)[C@@H](CC(C)C)C(=O)N(C)[C@@H](C(C)C)C(=O)N1C` [CYCLOSPORINE], for which, in the data set on B-cell line, the IC50 was found to be 0.74 µM.

A word on the IC50: it is the concentration that inhibits the measured activity by half. Broadly, the CC50 is the concentration that lowers cell viability or growth by half.
